Legend:
circulating lymphocytes = test: Measuring effects on lymphocytes in mice; format: in vivo
Protocol: Unless otherwise indicated, the term “circulating lymphocyte reduction factor” or “CLRF” means the decrease in the number of circulating lymphocytes in mice caused by oral administration of a single dose of a compound at 100 mg/kg, as determined by the method described in the Examples, below.
Compounds were administered by oral gavage or in drinking water. For oral dosing experiments, compounds were resuspended from crystals at 10 mg/ml in vehicle (e.g., water). Mice (F1 hybrids of 129/B6 strain) were gavaged with a single 100 mg/kg dose of compound (equivalent to 100 mpk of the free base for each compound) or a vehicle-only control, and returned to their cages. Mice were anesthetized using isofluorane eighteen hours after dosing and tissues were collected for analysis as described below. For drinking water studies, compounds were dissolved at 50 mg/L in acidified water (pH=2.8) containing 10 g/L glucose. The mice were allowed free access to compound-containing water (or glucose solution as a control) for 72 hours. At the end of 72 hours, tissues were collected for analysis.
CBC measurements were obtained as follows. Mice were anesthetized with isofluorane and blood was collected from the retroorbital plexus into EDTA blood collection tubes (Capiject-MQK, Terumo Medical Corp., Elkton, Md.). […]

S1P lyase = target: T1, S1P lyase (Mus musculus, UniProt Q8R0X7); details: when administered to mice; cited from earlier work
T1 construct: host or cells: mice (in vivo, endogenous enzyme)
T1 sequence (Q8R0X7 1-568): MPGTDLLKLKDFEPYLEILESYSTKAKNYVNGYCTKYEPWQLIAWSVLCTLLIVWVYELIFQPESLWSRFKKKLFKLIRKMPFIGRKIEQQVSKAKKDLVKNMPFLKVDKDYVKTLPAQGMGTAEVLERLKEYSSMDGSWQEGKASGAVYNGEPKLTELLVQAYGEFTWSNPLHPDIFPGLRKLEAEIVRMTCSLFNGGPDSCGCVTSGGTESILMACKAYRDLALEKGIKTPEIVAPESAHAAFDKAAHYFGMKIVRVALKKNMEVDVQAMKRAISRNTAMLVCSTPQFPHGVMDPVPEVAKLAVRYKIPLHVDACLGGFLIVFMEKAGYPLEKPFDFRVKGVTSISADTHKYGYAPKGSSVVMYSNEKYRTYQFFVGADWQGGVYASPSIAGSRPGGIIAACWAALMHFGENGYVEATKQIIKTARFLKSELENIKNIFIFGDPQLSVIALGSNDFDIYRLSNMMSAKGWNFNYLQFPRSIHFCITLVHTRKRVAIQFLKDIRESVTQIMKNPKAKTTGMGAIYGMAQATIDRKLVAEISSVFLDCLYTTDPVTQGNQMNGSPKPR

immunological effects = details: studies in humans; cited from earlier work
[1] = tested on: lymphocytes / mature T cells; details: administration to rats and mice; cited from earlier work

SMILES	effect on circulating lymphocytes (circulating lymphocytes)	S1P lyase activity (S1P lyase)	immunological effects (immunological effects)	accumulation of mature T cells in the thymus [1]	lymphopenia [1]
CC(=O)c1nc(C)c([C@@H](O)[C@H](O)[C@H](O)CO)s1 [1-(4-methyl-5-((1S,2R,3R)-1,2,3,4-tetrahydroxybutyl)thiazol-2-yl)ethanone]	little or no effect				
CC(=O)c1nc(C(O)C(O)C(O)CO)c[nH]1 (stereo not drawn) [THI, 2-acetyl-4-tetrahydroxybutylimidazole]	capable of reducing circulating lymphocytes	inhibits S1P lyase activity	no immunological effects	causes the accumulation of mature T cells in the thymus	induces lymphopenia

Reference: patent US7598280B2, “Heterocyclic compounds, compositions comprising them and methods of their use” (Lexicon Pharmaceuticals, Inc., priority 2007, dated 2009)
